Measurements as given in US11684660B2, “Human PD1 peptide vaccines and uses thereof” (OHIO STATE INNOVATION FOUNDATION, priority 2017, dated 2023).
No end group written: not given here.

Tests used:
[1] = biological target: T1, extracellular domain of human PD-L1 (hPD-L1) (Homo sapiens, UniProt Q9NZQ7); assay: BIACORE SPR binding to immobilized rhPD-L1; details: 1 μM peptide
T1 construct: Recombinant hPD-L1 ectodomain was immobilized onto the gold surface of a CM5 sensor chip
Experimental: To test the activity of all the selected peptides, surface plasmon resonance (SPR) spectroscopy (BIACORE™ T200, at […]) was used to measure their binding affinities to the extracellular domain of human PD-L1 (hPD-L1). Recombinant hPD-L1 ectodomain was immobilized onto the gold surface of a CM5 sensor chip by direct amine coupling.
1 μM BSA was used as the negative control. The chip was regenerated by 10 mM Glycine-HCl, pH 2.5(FIG. 3E).
1 μM of various PD-1 peptides were injected over the chip for 1 min at 10 μl/min followed by 1 min dissociation and then 1 min regeneration with 10 mM Glycine-HCl, pH 2.5 for each run.

[2] = test system: tumor infiltrating lymphocytes; assay: Analysis of tumor infiltrating lymphocytes from peptide-vaccinated mice; assay type: in vivo, Balb/c mice
Experimental: CD4 (20A) and CD8 (20B) T cells were determined by flow cytometry (gated on CD45+ cells). Foxp3+CD25+CD4 Tregs ([…]) were determined by intracellular staining (gated on CD45+CD4+ cells). […] Group means were calculated and compared with Anova
FIGS. 21A and 21B show Analysis of tumor infiltrating lymphocytes from peptide-vaccinated mice. […] Tumor infiltrating cells were isolated from combined tumor tissue from […] (group A to F) of treated mice in first in vivo experiment. Tumor infiltrating cells were isolated from each mouse in group 5 and 6 from second in vivo experiment. CD4 and CD8 cells were determined by flow cytometry (gated on CD45+ infiltrating cells). FoxP3 expression on CD25+CD4+ T cells were determined by intracellular staining (gated on CD45+CD4+ cells). […] CD4 and CD8 cells were determined by flow cytometry (gated on CD45+ infiltrating cells). FoxP3 expression on CD25+CD4+ T cells were determined by intracellular staining (gated on CD45+CD4+ cells). Group means were calculated and compared with Anova. Error bars denote s.e.m.
On the other hand, high numbers of T cells at the tumor site, especially CD8 T cells, is a key denominator for overall survival (OS) in cancer patients. […] Therefore, it was determined CD8/Treg ratio in TIC in tumor-bearing mice vaccinated with combination peptides or control peptide (described above). […] The cells were then incubated with mAbs to the cell-surface markers (CD45, CD4, CD8, CD25 Then the cells were fixed and permeabilized using Cytofix/Cytoperm solution (ebioscience) for 60 min at 4° C., followed by staining for FoxP3 for 30 min at 4° C. 80,000-100,000 live cell events were acquired on a FACSCantoII (BD) and analyzed using FlowJo software (Tree Star, Inc.). To differentiate TILs from tumor cells, the cells were first gated on CD45^+ cells. Then the CD4^+ (FIG. 20A) and CD8^+ (FIG. 20B) cells were analyzed. Tregs were represented by CD4^+CD25^+FoxP3^+ cells (FIG. 20C). GraphPad software (GraphPad Prism Software, Inc., San Diego, Calif., USA) was utilized for statistical analysis. Group means were calculated and compared with Anova. […]

CD4+CD25+FoxP3+ Tregs = assay: Immune-profiling of T cells in spleen and tumor by flow cytometry; assay type: in vivo, Balb/c mice
Experimental: CD4 and CD8 cells were determined by flow cytometry (gated on CD45+CD3+ cells). Foxp3+CD25+CD4 T regulatory cells were determined by intracellular staining. All CD4 and CD8 T cells were gated on CD45+CD3+ cells. Tregs were gated on CD45+CD3+CD4+ cells. Group A=control peptide, Group B=32-50; Group C=45-64; Group D=73-90; Group E=92-110; Group F=α-mouse PD-1 (positive control).
The tumor and tumor draining lymph nodes were collected for subsequent FACS analysis to study the immune response in mice. Cells suspensions were prepared from tissues either by mechanistic dissociation or by enzymatic digestion. The stained cells were analyzed with a LSR II flow cytometer (BD Biosciences) equipped with 3 excitation lasers at wavelengths 405, 488 and 633 nm. CD8+ T cells and CD4+CD25+ T cells from tumor leucocytes were purified either on a MACS column or FACSAria.
Flow cytometric analysis was performed to evaluate the expression of surface markers (CD45, CD3, CD4, CD8 and CD25) and transcription factor FoxP3 in splenocytes and tumor infiltrating T cells. Briefly, spleens were removed from mice and pressed through cell strainers, followed by a short incubation with red blood cells lysis buffer to lyse the red blood cells. Cells were then collected, washed, and resuspended in staining buffer (1% BSA in PBS). Similarly, tumors were removed from mice and pressed through cell strainers, followed by one wash with 37% percoll. The tumor cells were then washed with PBS and resuspended in staining buffer. The splenocytes and tumor cells were incubated with mAbs to the cell-surface markers for 30 min at 4° C. After washing twice with staining buffer, cells were fixed and permeabilized using Cytofix/Cytoperm solution for 60 min at 4° C. Cells were stained for FoxP3 for 30 min at 4° C. 80,000-100,000 live cell events were acquired on a FACSCanto (BD) and analyzed using FlowJo software (Tree Star, Inc.). To differentiate infiltrating cells from tumor cells, the tumor cells were first gated on CD45+ cells. Then the CD3+CD4+ and CD3+CD8+ cells were analyzed. Tregs were represented by CD4+CD25+FoxP3+ cells. […] Group E had the lowest Treg.

T1 sequence (Q9NZQ7 19-238 limits assumed): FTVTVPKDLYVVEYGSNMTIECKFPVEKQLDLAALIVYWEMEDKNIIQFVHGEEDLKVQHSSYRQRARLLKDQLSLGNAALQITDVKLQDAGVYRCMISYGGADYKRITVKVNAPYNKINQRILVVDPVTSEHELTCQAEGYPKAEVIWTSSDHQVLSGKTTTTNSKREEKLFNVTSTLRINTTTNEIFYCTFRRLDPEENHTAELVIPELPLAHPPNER

## KLLSLIKGVIVHRLEGVE-GPSL-GAISLAPKAQIKESLRAEL-CONH2 (KLLSLIKGVIVHRLEGVEGPSLGAISLAPKAQIKESLRAEL-NH2) [MVF-PD-1 (92-110)]
[1]
  binding to immobilized rhPD-L1 (in words): bind
[1]; 1 min at 10 μl/min
  SPR response of peptide binding to immobilized rhPD-L1: around 110 RU
[2]; Anova
  CD4 T cells or Treg cells in TILs, differences among groups: no significant differences
[2]; gated on CD45+ cells, Anova
  CD8+ T cells in TILs compared to control peptide-vaccinated group: significantly higher
[2]; mouse, in vivo
  CD8/Treg ratio in TILs compared to control peptide-vaccinated group: increased
CD4+CD25+FoxP3+ Tregs; splenocytes, FIG. 10A
  Treg population in spleen compared to Group A (negative control): increased Treg population
CD4+CD25+FoxP3+ Tregs; tumor infiltrating cells, FIG. 10B
  Tregs in tumor: lowest Treg
